Assays:
[1] = Solubility determination in water (vortex, sonication at ~50° C, HPLC of supernatant); assay type: physicochemical; settings: for Solubility: water, vortexed and sonicated ~5-10 min at ~50° C, HPLC
Protocol: The disalts described herein can have a relatively high solubility, e.g., water solubility. As used herein, the “solubility” of a disalt in a solvent refers to the maximum mass of a disalt that can be dissolved per unit volume of the solvent under accelerated dissolution conditions (50-60° C. with concommitant ultrasonic agitation of the disalt/solvent test sample). Unless otherwise indicated, solubility data is expressed in terms of units of milligrams (mg)/milliliter (mL), e.g., mg/mL.
The compound was weighed, and water was added to it such that the ratio of the sample and water of the mixture would be 100 mg/mL. The mixture was then shaken using a Vortex-Genie2 shaker (vortexed) and sonicated (˜5-10 min at ˜50° C). If a clear solution has been obtained, more compound was added to the solution, and a mixture was vortexed and sonicated until a homogeneous suspension was achieved. The suspension was then centrifuged at 10,000 rpm for about 10 min. The supernatant was taken out and diluted with 50/50 (v/v) EtOH/water, then the sample was analyzed by HPLC to determine the concentration.
The HPLC system consisted of the HP 1100 Model (Agilent, Wilmington, Del.) equipped with a model 1100 quaternary pump, a model 1100 autosampler, a model 1100 Diode-Array Detector for UV detection at 320 nm. The HPLC analysis was performed using an isocratic mobile phase consisting of acetonitrile-water containing 10 mM NH4OAc . Mobile phases were degassed and filtered through a solvent filtration apparatus and pumped at a constant rate of 1.0 mL/min. The separation was made on an XTerra MS C18 analytical column, 4.6 mm i.d.×150 mm, (Waters Corp., Milford, Mass., USA) fitted with a precolumn filter (XTerra MS C18, 3.9 mm×20mm). The column was maintained at 30° C. Data acquisition and instrument setting were controlled using HP Chemstation software (ver.8.03).

[2] = Solubility in water at fixed concentrations (5 mg per 0.1, 0.2 or 0.25 mL); assay type: physicochemical

Compound | Solubility [1] [mg/mL] | melting point [°C] | other results
CS(=O)(=O)O.Cc1cccc(C=NNc2cc(N3CCOCC3)nc(OCCc3ccccn3)n2)c1 [{[(1)(1H^+)]^1+•[1(CH3SO3^−)]^1−}, N-(3-Methyl-benzylidene)-N′-[6-morpholin-4-yl-2-(2-pyridin-2-yl-ethoxy)-pyrimidin-4-yl]-hydrazine 1 methanesulfonate (mesylate)] | 52.0 ± 0.1 | – | –
C(=NNc1nc(OCCc2ccccn2)nc(N2CCOCC2)n1)c1c[nH]c2ccccc12 | – | 158 to 161 | –
CS(=O)(=O)O.CS(=O)(=O)O.Cc1cccc(C=NNc2cc(N3CCOCC3)nc(OCCc3ccccn3)n2)c1 [{[(1)(2H^+)]^2+•[2(CH3SO3^−)]^2−}, N-(3-Methyl-benzylidene)-N′-[6-morpholin-4-yl-2-(2-pyridin-2-yl-ethoxy)-pyrimidin-4-yl]-hydrazine (1) dimethanesulfonate (dimesylate)] | 831 ± 5 | – | solubility of disalt relative to the solubility of the corresponding monosalt ([1]; versus monosalt {[(1)(1H^+)]^1+.[1(CH3SO3^−)]}): more than ten times greater
Cc1cccc(C=NNc2cc(N3CCOCC3)nc(OCCc3ccccn3)n2)c1.Cl [{[(1)(2H^+)]^1+•[1(Cl^−)]^1−}, N-(3 -Methyl-benzylidene)-N′-[6-morpholin-4-yl-2-(2-pyridin-2-yl-ethoxy)-pyrimidin-4-yl]-hydrazine (1) hydrochloride] | 12.6 ± 0.4 | – | –
Cc1cccc(C=NNc2cc(N3CCOCC3)nc(OCCc3ccccn3)n2)c1.O=[N+]([O-])O.O=[N+]([O-])O [{[(1)(2H^+)]^2+•[2(NO3^−)]^2−}, N-(3-Methyl-benzylidene)-N′-[6-morpholin-4-yl-2-(2-pyridin-2-yl-ethoxy)-pyrimidin-4-yl]-hydrazine (1) dinitrate] | 83.4 ± 0.2 | – | solubility in water at a concentration of 5 mg/0.1 mL [2]: insoluble; solubility in water at a concentration of 5 mg/0.2 mL ([2]; 5 mg/0.2 mL): partially soluble; solubility in water at a concentration of 5 mg/0.25 mL ([2]; 5 mg/0.25 mL): partially soluble
CN(N=Cc1c[nH]c2ccccc12)c1cc(N2CCOCC2)nc(OCCc2ccccn2)n1 | – | 130 to 140 | –
Cc1cccc(C=NNc2cc(N3CCOCC3)nc(OCCc3ccccn3)n2)c1.Cl.Cl [{[(1)(2H^+)]^2+•[2(Cl^−)]^2−}, N-(3-Methyl-benzylidene)-N′-[6-morpholin-4-yl-2-(2-pyridin-2-yl-ethoxy)-pyrimidin-4-yl]-hydrazine (1) dihydrogenchloride (dichloride)] | 213 ± 5 | – | solubility in water at a concentration of 5 mg/0.1 mL [2]: soluble
Cc1cccc(C=NNc2nc(OCCc3ccccn3)nc(N3CCOCC3)n2)c1 | – | 143 to 147 | –
C(=NNc1cc(N2CCOCC2)nc(OCCc2ccccn2)n1)c1c[nH]c2ccccc12.CS(=O)(=O)O.CS(=O)(=O)O [{[(2)(2H^+)]^2+•[2(CH3SO3^−)]^2−}, N-(1H-indol-3-ylmethylene)—N′-[6-morpholin-4-yl-2-(2-pyridin-2-yl-ethoxy)-pyrimidin-4-yl]-hydrazine (2) dimethanesulfonate (dimesylate)] | 454 ± 5 | – | –
C(=NNc1cc(N2CCOCC2)nc(OCCc2ccccn2)n1)c1c[nH]c2ccccc12 | – | 160 to 165 | –
CN(N=Cc1c[nH]c2ccccc12)c1cc(N2CCOCC2)nc(OCCc2ccccn2)n1.CS(=O)(=O)O.CS(=O)(=O)O [{[(3)(2H^+)]^2+•[2(CH3SO3^−)]^2−}, N′-(1H-indol-3-ylmethylene)-N-methyl-N-[6-morpholin-4-yl-2-(2-pyridin-2-yl-ethoxy)-pyrimidin-4-yl]-hydrazine (3) dimesylate] | 306 ± 14 | – | –

Source: US7745436B2, “Disalt inhibitors of IL-12 production” (Synta Pharmaceuticals Corporation, priority 2004, dated 2010)
